Test results taken from article PMC11678425, “(-)-Syringaresinol Exerts an Antidepressant-like Activity in Mice by Noncompetitive Inhibition of the Serotonin Transporter” (Pharmaceuticals, 2024).

What was measured:
hSERT S2 mutants = experiment: APP^+ uptake or ASP^+ binding, all S2 mutants compared with WT; format: cell-based, human; conditions: all S2 mutants tested
Protocol: (§1) HeLa cells were cultured in Dulbecco’s Modified Eagle’s Medium supplemented with 10% fetal bovine serum, 100 units/mL penicillin, and 100 μg/mL streptomycin at 37 °C in a humidified 5% CO2 incubator. Cells grown at ~70% confluence in a 6 cm culture dish were transfected with hSERT cDNA in pcDNA3.1 by lipofectamine 2000. Transfected cells were incubated for 12 h at 37 °C with 5% CO2 and then transferred into 96-well plates. After being grown for an additional 12–16 h, the cells were then assayed for APP^+ uptake or ASP^+ binding.
Measurement of transport or ligand binding activity of SERT was performed by using its fluorescent substrate (APP^+) or ligand (ASP^+), respectively. The cells transiently expressing WT or mutants of hSERT were applied for various treatments. […] APP^+ uptake was measured by adding 100 μL KRH buffer containing 2 μM APP^+ and incubating for 5 min at 22 °C. […] The extent of APP^+ accumulated in the cells was determined by fluorescence spectrometry with an Infinite 200 Pro microplate reader (Tecan, Männedorf, Switzerland).
ASP^+ binding to SERT expressed on the cell surface was measured with digitonin-permeabilized cells as described previously. […] After removing excess ASP^+ by 3× rapid washing, ASP^+ fluorescence retained in the cell membrane was determined by fluorescence spectrometry. […]

hSERT I172F = biological target: T1, hSERT I172F (Homo sapiens, UniProt P31645, I172F); experiment: ASP^+ binding, hSERT I172F; conditions: S1 site mutant, read-out: SYR IC50 for Binding
T1 construct: forward and reverse primers were used to amplify a full-length hSERT; expressed in transfected cells; host or cells: HeLa

hSERT Q111N [1] = biological target: T2, hSERT Q111N (Homo sapiens, UniProt P31645, Q111N); experiment: ASP^+ binding, hSERT Q111N; conditions: S2 site mutant, read-out: SYR IC50 for Binding
T2 construct: forward and reverse primers were used to amplify a full-length hSERT; expressed in transfected cells; host or cells: HeLa cells, transient, pcDNA3.1

hSERT S559A = biological target: T3, hSERT S559A (Homo sapiens, UniProt P31645, S559A); experiment: APP^+ uptake, hSERT S559A; format: cell-based; conditions: S2 site mutant, read-out: SYR IC50 for Transport
T3 construct: forward and reverse primers were used to amplify a full-length hSERT; expressed in transfected cells; host or cells: HeLa cells, transient, pcDNA3.1

hSERT L563A = biological target: T4, hSERT L563A (Homo sapiens, UniProt P31645, L563A); experiment: ASP^+ binding, hSERT L563A; conditions: S2 site mutant, read-out: SYR IC50 for Binding
T4 construct: forward and reverse primers were used to amplify a full-length hSERT; expressed in transfected cells; host or cells: HeLa

hSERT T497A = biological target: T5, hSERT T497A (Homo sapiens, UniProt P31645, T497A); experiment: APP^+ uptake, hSERT T497A; format: cell-based; conditions: S2 site mutant, read-out: SYR IC50 for Transport
T5 construct: forward and reverse primers were used to amplify a full-length hSERT; expressed in transfected cells; host or cells: HeLa cells, transient, pcDNA3.1

hSERT Y95F = biological target: T6, hSERT Y95F (Homo sapiens, UniProt P31645, Y95F); experiment: APP^+ uptake, hSERT Y95F; format: cell-based; conditions: S1 site mutant, read-out: SYR IC50 for Transport
T6 construct: forward and reverse primers were used to amplify a full-length hSERT; expressed in transfected cells; host or cells: HeLa
Protocol: as §1
Measurement of transport or ligand binding activity of SERT was performed by using its fluorescent substrate (APP^+) or ligand (ASP^+), respectively. The cells transiently expressing WT or mutants of hSERT were applied for various treatments. Briefly, the cells were washed twice with 100 μL KRH buffer containing 20 mM HEPES (Neofroxx, Einhausen, Germany), pH 7.4, 120 mM NaCl, 1.3 mM KCl, 2.2 mM CaCl2, 1.2 mM MgSO4, and 0.1% (w/v) glucose. APP^+ uptake was measured by adding 100 μL KRH buffer containing 2 μM APP^+ and incubating for 5 min at 22 °C. Excess APP^+ was then removed by 3× rapid washing with 100 μL KRH buffer each time. The extent of APP^+ accumulated in the cells was determined by fluorescence spectrometry with an Infinite 200 Pro microplate reader (Tecan, Männedorf, Switzerland). […]

hSERT P561G = biological target: T7, hSERT P561G (Homo sapiens, UniProt P31645, P561G); experiment: APP^+ uptake, hSERT P561G; format: cell-based; conditions: S2 site mutant, read-out: SYR IC50 for Transport
T7 construct: forward and reverse primers were used to amplify a full-length hSERT; expressed in transfected cells; host or cells: HeLa

hSERT S438T = biological target: T8, hSERT S438T (Homo sapiens, UniProt P31645, S438T); experiment: ASP^+ binding, hSERT S438T; conditions: S1 site mutant, read-out: SYR IC50 for Binding
T8 construct: forward and reverse primers were used to amplify a full-length hSERT; expressed in transfected cells; host or cells: HeLa

hSERT F556A = biological target: T9, hSERT F556A (Homo sapiens, UniProt P31645, F556A); experiment: ASP^+ binding, hSERT F556A; conditions: S2 site mutant, read-out: SYR IC50 for Binding
T9 construct: forward and reverse primers were used to amplify a full-length hSERT; expressed in transfected cells; host or cells: HeLa cells, transient, pcDNA3.1

hSERT Q562N = biological target: T10, hSERT Q562N (Homo sapiens, UniProt P31645, Q562N); experiment: ASP^+ binding, hSERT Q562N; conditions: S2 site mutant, read-out: SYR IC50 for Binding
T10 construct: forward and reverse primers were used to amplify a full-length hSERT; expressed in transfected cells; host or cells: HeLa

CUMS mice [2] = experiment: Forced swim test (FST) in CUMS mice; format: in vivo, mouse
Protocol: (§2) C57BL/6 adult (6–8 weeks, body weight, 18–22 g) male mice were maintained and handled in a standard condition at the Experimental Animal Center of Southern Medical University (Guangzhou, China). Animal use was approved by the Animal Use and Care Committee of Southern Medical University (approved code: SMUL2021177, approved date: 12 December 2021). The CUMS procedure was carried out according to a protocol described previously. Except for those in the control group, mice were randomly exposed to two mild unpredictable stressors per day for 3 weeks. The stressors included water deprivation, restraint, tilted cage, wet/no bedding, rotation, peppermint, noise, and inverted light off/on. Mice in the control group were group housed without any stressors throughout the procedure. […] NSFT was performed after 16 h food deprivation, as described previously. The mouse was placed in an open field (24 × 40 × 14 cm), where a new chow was put in the center, and the latency time to bite food was counted over 10 min. Home cage feeding within a 20 min period was measured after the test. FST was carried out according to a protocol described previously. The mouse was placed into a beaker (Bomex, Beijing, China) with a height of 18 cm filled with water (22 ± 1 °C) for 6 min. The immobile time was measured during minutes 2–6. TST was performed according to a previous description. The mouse was suspended from a hook that hung from a suspension bar by placing a piece of adhesive tape on its tail about 1 cm away from the tip. The immobile time during minutes 2–6 was measured.

hSERT Q111N [3] = biological target: T2, hSERT Q111N; experiment: APP^+ uptake, hSERT Q111N; format: cell-based; conditions: S2 site mutant, read-out: SYR IC50 for Transport
SERT Y107C/C109A = experiment: Cysteine accessibility, extracellular pathway: MTSET reactivity with Y107C/C109A; format: cell-based; conditions: 10 μM ligand, compared with the control (MTSET alone)
hSERT Y579A = biological target: T11, hSERT Y579A (Homo sapiens, UniProt P31645, Y579A); experiment: ASP^+ binding, hSERT Y579A; conditions: S2 site mutant, read-out: SYR IC50 for Binding
T11 construct: forward and reverse primers were used to amplify a full-length hSERT; expressed in transfected cells; host or cells: HeLa

[4] = tested on: hSERT Q111N, G498T, P561G, Q562N; experiment: ASP^+ binding, four S2 mutants compared with WT; parameters: species or system human; conditions: P561G, and Q562N
Protocol: as §1
ASP^+ binding to SERT expressed on the cell surface was measured with digitonin-permeabilized cells as described previously. The cells expressing WT or mutants of hSERT were incubated with 10 μM ASP^+ in the presence of 25 μg/mL digitonin at 22 °C for 5 min. After removing excess ASP^+ by 3× rapid washing, ASP^+ fluorescence retained in the cell membrane was determined by fluorescence spectrometry.
hSERT mutants were generated using the Mut Express II Fast Mutagenesis kit (Vazyme, Nanjing, China). Briefly, forward and reverse primers were used to amplify a full-length hSERT. The PCR products were then digested with restriction enzymes, excised from agarose gels, and ligated into pcDNA3.1. All mutations were confirmed by full-length DNA sequencing.

CUMS mice [5] = experiment: Novelty suppressed feeding test (NSFT) in CUMS mice; format: in vivo, mouse
Protocol: as §2

[6] = 5 mg/kg, i.p., once per day day 7 to 21

T2 sequence (P31645 whole entry Q111N): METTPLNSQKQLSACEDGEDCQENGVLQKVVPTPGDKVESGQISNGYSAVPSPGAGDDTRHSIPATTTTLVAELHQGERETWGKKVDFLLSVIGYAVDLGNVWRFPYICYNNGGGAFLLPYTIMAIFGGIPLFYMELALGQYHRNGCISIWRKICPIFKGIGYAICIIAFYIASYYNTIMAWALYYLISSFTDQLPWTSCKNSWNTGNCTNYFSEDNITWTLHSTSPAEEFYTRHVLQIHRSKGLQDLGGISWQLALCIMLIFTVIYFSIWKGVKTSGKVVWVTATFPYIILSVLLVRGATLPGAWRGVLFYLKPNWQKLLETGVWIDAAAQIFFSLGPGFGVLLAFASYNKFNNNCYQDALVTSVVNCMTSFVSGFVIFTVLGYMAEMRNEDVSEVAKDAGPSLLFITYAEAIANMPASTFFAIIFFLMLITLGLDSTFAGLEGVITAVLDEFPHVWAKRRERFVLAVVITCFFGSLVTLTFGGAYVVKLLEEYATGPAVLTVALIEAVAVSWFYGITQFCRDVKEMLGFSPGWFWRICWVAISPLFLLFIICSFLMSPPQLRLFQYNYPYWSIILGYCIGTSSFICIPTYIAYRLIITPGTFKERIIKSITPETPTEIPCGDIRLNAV
T7 sequence (P31645 whole entry P561G): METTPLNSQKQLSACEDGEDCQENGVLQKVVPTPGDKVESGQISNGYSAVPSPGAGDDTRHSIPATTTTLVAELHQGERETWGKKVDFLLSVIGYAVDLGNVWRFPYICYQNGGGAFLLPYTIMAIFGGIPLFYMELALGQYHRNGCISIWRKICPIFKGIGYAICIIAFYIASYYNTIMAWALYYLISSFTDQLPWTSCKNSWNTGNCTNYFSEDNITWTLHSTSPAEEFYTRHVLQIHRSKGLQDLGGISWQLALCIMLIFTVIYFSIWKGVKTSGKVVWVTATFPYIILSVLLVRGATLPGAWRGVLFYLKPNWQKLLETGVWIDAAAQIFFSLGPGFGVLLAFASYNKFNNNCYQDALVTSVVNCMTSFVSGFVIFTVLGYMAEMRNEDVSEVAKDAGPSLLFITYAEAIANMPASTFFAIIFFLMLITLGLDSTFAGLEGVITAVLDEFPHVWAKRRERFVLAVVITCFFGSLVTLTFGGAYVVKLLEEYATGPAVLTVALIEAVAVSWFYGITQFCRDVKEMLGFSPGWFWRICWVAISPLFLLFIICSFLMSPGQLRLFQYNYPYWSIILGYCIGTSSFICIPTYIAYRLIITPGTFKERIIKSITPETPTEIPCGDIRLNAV
T5 sequence (P31645 whole entry T497A): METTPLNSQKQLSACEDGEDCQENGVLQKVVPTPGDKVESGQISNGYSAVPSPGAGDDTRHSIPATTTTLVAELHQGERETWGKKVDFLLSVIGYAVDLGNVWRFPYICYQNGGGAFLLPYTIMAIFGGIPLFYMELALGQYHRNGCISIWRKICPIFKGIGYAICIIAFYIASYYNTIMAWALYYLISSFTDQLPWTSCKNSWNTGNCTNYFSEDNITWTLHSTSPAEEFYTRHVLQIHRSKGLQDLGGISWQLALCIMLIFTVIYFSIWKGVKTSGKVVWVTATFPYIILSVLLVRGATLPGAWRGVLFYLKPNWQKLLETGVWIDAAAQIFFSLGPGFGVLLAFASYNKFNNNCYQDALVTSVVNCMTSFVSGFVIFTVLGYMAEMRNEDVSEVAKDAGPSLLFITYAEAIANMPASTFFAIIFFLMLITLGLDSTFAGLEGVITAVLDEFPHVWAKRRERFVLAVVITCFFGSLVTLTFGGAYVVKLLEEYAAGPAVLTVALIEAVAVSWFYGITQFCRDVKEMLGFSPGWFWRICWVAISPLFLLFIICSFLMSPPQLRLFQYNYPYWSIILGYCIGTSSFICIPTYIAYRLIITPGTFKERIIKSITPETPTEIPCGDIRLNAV
T8 sequence (P31645 whole entry S438T): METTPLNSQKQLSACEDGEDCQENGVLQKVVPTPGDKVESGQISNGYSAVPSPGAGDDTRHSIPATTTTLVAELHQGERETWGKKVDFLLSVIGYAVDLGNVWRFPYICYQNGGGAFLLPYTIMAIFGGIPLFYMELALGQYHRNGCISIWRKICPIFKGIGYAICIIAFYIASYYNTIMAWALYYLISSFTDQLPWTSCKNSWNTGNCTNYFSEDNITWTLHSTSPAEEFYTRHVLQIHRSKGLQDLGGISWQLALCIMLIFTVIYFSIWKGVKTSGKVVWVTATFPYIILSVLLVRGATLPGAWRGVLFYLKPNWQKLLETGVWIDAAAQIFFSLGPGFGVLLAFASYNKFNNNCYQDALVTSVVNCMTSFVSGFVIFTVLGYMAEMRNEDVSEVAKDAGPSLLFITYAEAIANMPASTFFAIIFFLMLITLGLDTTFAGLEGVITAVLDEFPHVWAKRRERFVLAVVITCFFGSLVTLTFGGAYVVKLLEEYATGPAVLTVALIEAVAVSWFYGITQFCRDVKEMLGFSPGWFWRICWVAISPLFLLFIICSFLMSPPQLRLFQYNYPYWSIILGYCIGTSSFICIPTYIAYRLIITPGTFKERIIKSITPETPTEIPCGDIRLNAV
T11 sequence (P31645 whole entry Y579A): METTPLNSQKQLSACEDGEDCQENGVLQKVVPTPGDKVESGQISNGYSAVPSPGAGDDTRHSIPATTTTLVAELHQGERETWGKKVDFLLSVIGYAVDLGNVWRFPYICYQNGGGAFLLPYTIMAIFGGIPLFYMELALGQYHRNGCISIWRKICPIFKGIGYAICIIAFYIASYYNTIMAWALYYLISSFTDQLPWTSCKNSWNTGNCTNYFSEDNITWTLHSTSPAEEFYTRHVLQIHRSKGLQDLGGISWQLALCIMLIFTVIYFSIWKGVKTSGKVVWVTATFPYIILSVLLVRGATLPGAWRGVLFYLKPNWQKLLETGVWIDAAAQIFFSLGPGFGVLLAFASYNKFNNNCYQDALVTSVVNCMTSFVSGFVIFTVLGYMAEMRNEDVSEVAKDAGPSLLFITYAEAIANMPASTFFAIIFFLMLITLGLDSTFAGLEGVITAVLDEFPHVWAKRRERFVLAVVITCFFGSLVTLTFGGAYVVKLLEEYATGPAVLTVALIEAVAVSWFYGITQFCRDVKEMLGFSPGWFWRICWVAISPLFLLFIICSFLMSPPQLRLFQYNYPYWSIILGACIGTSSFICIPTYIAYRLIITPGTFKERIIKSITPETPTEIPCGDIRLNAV
T3 sequence (P31645 whole entry S559A): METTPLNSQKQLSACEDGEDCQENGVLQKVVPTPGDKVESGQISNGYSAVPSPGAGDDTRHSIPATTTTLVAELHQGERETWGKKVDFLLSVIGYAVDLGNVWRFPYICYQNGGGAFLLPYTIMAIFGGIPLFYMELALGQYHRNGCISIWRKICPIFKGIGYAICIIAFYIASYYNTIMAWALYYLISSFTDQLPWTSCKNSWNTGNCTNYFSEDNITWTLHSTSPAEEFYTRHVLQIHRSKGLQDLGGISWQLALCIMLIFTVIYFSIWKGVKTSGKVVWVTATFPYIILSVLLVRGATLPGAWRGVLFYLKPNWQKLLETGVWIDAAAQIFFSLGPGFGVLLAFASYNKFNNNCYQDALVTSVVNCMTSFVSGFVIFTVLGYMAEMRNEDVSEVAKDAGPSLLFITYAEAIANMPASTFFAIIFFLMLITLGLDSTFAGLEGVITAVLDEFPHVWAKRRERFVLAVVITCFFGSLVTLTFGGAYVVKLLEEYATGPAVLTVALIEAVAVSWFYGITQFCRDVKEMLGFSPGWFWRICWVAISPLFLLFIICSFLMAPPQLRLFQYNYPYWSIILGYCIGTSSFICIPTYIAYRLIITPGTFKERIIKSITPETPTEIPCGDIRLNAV
T1 sequence (P31645 whole entry I172F): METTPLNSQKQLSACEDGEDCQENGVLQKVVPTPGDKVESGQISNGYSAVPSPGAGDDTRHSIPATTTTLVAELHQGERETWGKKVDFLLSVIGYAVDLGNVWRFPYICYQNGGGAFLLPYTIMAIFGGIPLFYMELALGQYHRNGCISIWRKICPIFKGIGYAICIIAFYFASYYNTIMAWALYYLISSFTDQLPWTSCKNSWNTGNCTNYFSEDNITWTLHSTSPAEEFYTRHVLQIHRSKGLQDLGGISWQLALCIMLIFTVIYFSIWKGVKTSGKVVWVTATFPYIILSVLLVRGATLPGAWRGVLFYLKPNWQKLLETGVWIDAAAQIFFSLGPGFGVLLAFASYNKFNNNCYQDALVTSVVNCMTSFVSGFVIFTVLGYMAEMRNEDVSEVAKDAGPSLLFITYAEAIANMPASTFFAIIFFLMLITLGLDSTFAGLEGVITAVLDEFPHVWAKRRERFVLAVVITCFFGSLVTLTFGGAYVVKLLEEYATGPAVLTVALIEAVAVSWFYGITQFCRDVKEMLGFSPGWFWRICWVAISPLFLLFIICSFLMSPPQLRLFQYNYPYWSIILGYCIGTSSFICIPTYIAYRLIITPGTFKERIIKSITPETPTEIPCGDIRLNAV
T4 sequence (P31645 whole entry L563A): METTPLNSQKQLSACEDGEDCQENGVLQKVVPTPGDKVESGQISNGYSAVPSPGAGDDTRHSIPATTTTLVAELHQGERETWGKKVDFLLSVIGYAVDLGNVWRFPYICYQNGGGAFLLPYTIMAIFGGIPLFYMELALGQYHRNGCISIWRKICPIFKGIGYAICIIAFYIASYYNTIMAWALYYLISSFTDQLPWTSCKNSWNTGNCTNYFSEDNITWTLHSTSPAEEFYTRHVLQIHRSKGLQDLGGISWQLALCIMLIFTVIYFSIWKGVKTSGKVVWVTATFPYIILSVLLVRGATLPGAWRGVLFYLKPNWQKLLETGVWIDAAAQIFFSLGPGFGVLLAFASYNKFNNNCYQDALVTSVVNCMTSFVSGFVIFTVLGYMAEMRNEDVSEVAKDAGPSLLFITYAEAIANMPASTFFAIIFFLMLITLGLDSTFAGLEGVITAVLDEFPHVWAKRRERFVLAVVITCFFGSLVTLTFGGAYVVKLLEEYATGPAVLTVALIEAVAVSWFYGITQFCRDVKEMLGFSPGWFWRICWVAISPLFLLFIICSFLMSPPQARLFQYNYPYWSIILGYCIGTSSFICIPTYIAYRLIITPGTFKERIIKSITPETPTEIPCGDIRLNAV

Structure (SMILES): COc1cc([C@@H]2OC[C@@H]3[C@H]2CO[C@H]3c2cc(OC)c(O)c(OC)c2)cc(OC)c1O [SYR, (-)-syringaresinol]
- increase of SYR IC50 for APP^+ uptake or ASP^+ binding compared with WT (hSERT S2 mutants): more than 10 fold
- IC50 (hSERT I172F): 1.51 ± 0.04 µM
- IC50 (hSERT Q111N [1]): 115 ± 2.47 µM
- IC50 (hSERT S559A): 19.5 ± 1.46 µM
- IC50 (hSERT L563A): 39 ± 0.92 µM
- IC50 (hSERT T497A): 10.6 ± 2.4 µM
- IC50 (hSERT Y95F): 2.64 ± 0.12 µM
- IC50 (hSERT P561G): 46.3 ± 0.94 µM
- IC50 (hSERT S438T): 2.32 ± 0.02 µM
- IC50 (hSERT F556A): 21.6 ± 1.2 µM
- IC50 (hSERT Q562N): 99.9 ± 2.04 µM
- reversal of behavioral abnormalities in FST (CUMS mice [2]; [6]): did not exhibit a significant response
- effect in FST (CUMS mice [2]; 10 or 20 mg/kg (i.p.)): remarkable antidepressant-like effects
- IC50 (hSERT Q111N [3]): 17.7 ± 0.45 µM
- rate constant of MTSET reactivity with Y107C/C109A (SERT Y107C/C109A): markedly increased
- IC50 (hSERT Y579A): 28.62 ± 0.15 µM
- SYR IC50 for ASP^+ binding relative to WT [4]: ≥ 100 fold
- reversal of behavioral abnormalities in NSFT (CUMS mice [5]; [6]): did not exhibit a significant response
- effect in NSFT (CUMS mice [5]; 10 or 20 mg/kg (i.p.)): remarkable antidepressant-like effects
